Tests used:
human M4 receptor [1] = molecular target: T1, human M4 receptor (Homo sapiens, UniProt P08173); assay: cAMP assay for M4 positive allosteric modulators (M4 PAM cAMP assay); assay type: cell-based; parameters: expressed in transfected cells; host or cells: CHO-K1; details: Table 1; CHO-K1 cells expressing human M4; forskolin 7.5 μM + acetylcholine EC20 (0.2 nM)
T1 sequence (P08173 1-479): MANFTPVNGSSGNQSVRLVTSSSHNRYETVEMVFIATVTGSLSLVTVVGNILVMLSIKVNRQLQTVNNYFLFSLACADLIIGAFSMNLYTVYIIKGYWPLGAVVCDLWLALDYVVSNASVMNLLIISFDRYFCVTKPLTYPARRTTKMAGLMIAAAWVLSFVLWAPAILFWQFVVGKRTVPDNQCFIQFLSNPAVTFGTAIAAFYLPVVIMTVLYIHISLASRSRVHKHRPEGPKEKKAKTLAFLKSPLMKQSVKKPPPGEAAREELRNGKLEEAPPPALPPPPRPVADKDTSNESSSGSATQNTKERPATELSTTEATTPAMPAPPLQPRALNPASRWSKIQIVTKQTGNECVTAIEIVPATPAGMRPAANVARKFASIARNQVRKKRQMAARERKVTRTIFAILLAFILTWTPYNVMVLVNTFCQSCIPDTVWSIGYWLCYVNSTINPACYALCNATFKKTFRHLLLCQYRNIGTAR
Protocol: The potency of M4 PAMs was determined using a cell-based cyclic adenosine monophosphate assay. The assay was performed with CHO-Kl cells stably expressing untagged human M4 receptor and cAMP was quantified using the Nano-TRF Detection Assay kit (Roche, Cat. No. 05214386) as described in the kit instructions. The cells were grown in Ham's F-12 Nutrient mix supplemented with 10% FBS and 200 μg/ml geneticin until they reached 80% confluency. The cells were washed with PBS, detached with accutase and resuspended in assay buffer consisting of HBSS and 0.1% BSA. They were then seeded in black 384-well plates (Corning, Cat. No. 3764) at a density of 20,000 cells/20 μl per well until the addition of compounds.
Test compounds were serially diluted 1:2 in 100% DMSO and spotted in 384-well plates at 0.5 μl/well. The compounds were then diluted in water containing IBMX (Sigma, Cat. No. 17018) and a sample (5 μl) was added to the cells for 15 minutes at 37° C./5% CO2. After this incubation the cells were stimulated with a combination of forskolin (7.5 μM) and acetylcholine EC20 (0.2 nM) in assay buffer for 30 minutes at 37° C./5% CO2. The assay was stopped by adding cAMP detection mix (15 μl/well, containing detergents for cell lysis) for one hour at RT.
The test plates were read using a SpectraMax i3x reader (Molecular Devices). The exported raw data was used to calculate the FRET signal based on the P-factor as per cAMP kit instructions. The data was normalized to the activity of acetylcholine plus forskolin, with 2 nM of acetylcholine plus 7.5 μM forskolin defined as 100% activity. Dose response curves were fitted to the percent activity data of the compounds using a sigmoidal dose response model (XLfit, IDBS) and the data were reported as EC50 and percent efficacy.

human M4 receptor [2] = molecular target: T1, human M4 receptor; assay: Calcium flux assay using fluorescent imaging (M4 PAM FLIPR assay); assay type: cell-based; parameters: expressed in transfected cells; host or cells: CHO (monoclonal line, clone 2); details: Table 1; CHO cells expressing human M4+Gqi5; acetylcholine EC20
Protocol: CHO cells were transfected with expression plasmid encoding the human M4 receptor and a Gqi5 construct to redirect Gi signaling to calcium. Stable cells were cloned by limiting dilution to yield a monoclonal cell line expressing human M4+Gqi5 (clone 2). The stable cells were grown in DMEM containing 10% FBS, 200 ug/ml Geneticin and 800 ug/ml Hygromycin at 37° C. in a 10% CO2 incubator at 95% humidity.
Calcium Flux Assay Using Fluorescent Imaging (“M4 PAM FLIPR” Assay)
On the afternoon before the assay, cells were plated at a density of 50,000 cells/well into black 96 well plates with clear bottoms to yield a confluent monolayer the next day. Hanks balanced salt solution, without phenol red, containing 20 mM HEPES (pH 7.3) and 2.5 mM probenecid (assay buffer) was prepared fresh for each experiment. Compound dilutions were made using a Beckman Biomek 2000 laboratory automation workstation, in assay buffer. The dye-loading buffer consisted of a final concentration of 2 μM Fluo-4-AM (dissolved in DMSO and pluronic acid) and 65 μg/ml amidoblack in assay buffer. The existing culture media was removed from the wells and 100 μl of the dye-loading buffer was added to each well and incubated for approximately 90 min at 37° C. in a 5% CO2 incubator at 95% humidity.
Calcium flux in the dye-loaded cells was measured with the fluorescence reader Hamamatsu FDSS 7000. To test compounds as agonists, compound addition (25 μl) was made 10 s into the fluorescent measurements and fluorescent response was recorded for 3 minutes. The fluorescence data was expressed as percentage of the fluorescence obtained by an EC100 concentration (3 μM) of the endogenous full agonist acetylcholine. Each test compound concentration-response curve was constructed using a four parameter logistic equation in Microsoft Excel XLFit as follows:
Y=Minimum+((Maximum−Minimum)/(1+10^(LogEC50−X)nH)).
The concentration of agonist that produced a half-maximal response is represented by the EC50 value. Maximum and minimum are the maximum and minimum fluorescence signal in % respectively. nH is the Hill slope.
To measure positive allosteric modulator activity 25 μl of an EC20 concentration of the endogenous agonist acetylcholine is added to the cells already pre-incubated with the test compound for 15 minutes.
The M4 PAM dose response is constructed using the agonist dose-response equation above. The concentration of PAM that produced a half-maximal response is represented by the EC50 value and the maximum signal measured is the PAM efficacy expressed in % of the EC100 (3 μM) acetylcholine response. • cAMP Assay for M4 Positive Allosteric Modulators (“M4 PAM cAMP” Assay)

SMILES	EC50 (human M4 receptor [1]) [nM]	EC50 (human M4 receptor [2]) [nM]
Cc1nc2c(c(C)c1Cl)CN(C(=O)[C@@H]1CCN(c3ccncc3)C1)C2 [Example 3, (3-chloro-2,4-dimethyl-5,7-dihydropyrrolo[3,4-b]pyridin-6-yl)-[(3R)-1-(4-pyridyl)pyrrolidin-3-yl]methanone]	769	489
Cc1ccc(N2CC[C@@H](C(=O)N3Cc4nc(C)c(Cl)c(C)c4C3)C2)cn1 [Example 4, (3-chloro-2,4-dimethyl-5,7-dihydropyrrolo[3,4-b]pyridin-6-yl)-[(3R)-1-(6-methyl-3-pyridyl)pyrrolidin-3-yl]methanone]	690	547
Cc1cc(N2CC[C@@H](C(=O)N3Cc4nc(C)c(Cl)c(C)c4C3)C2)ccn1 [Example 5, (3-chloro-2,4-dimethyl-5,7-dihydropyrrolo[3,4-b]pyridin-6-yl)-[(3R)-1-(2-methyl-4-pyridyl)pyrrolidin-3-yl]methanone]	616	490
Cc1nc2c(c(C)c1Cl)CN(C(=O)[C@@H]1CCN(c3ccnc(C4CC4)n3)C1)C2 [Example 6, (3-chloro-2,4-dimethyl-5,7-dihydropyrrolo[3,4-b]pyridin-6-yl)-[(3R)-1-(2-cyclopropylpyrimidin-4-yl)pyrrolidin-3-yl]methanone]	3780	931
Cc1nc2c(c(C)c1Cl)CN(C(=O)[C@@H]1CCN(c3ncc(C(F)(F)F)cn3)C1)C2 [Example 7, (3-chloro-2,4-dimethyl-5,7-dihydropyrrolo[3,4-b]pyridin-6-yl)-[(3R)-1-[5-(trifluoromethyl)pyrimidin-2-yl]pyrrolidin-3-yl]methanone]	2080	1010
Cc1cnc(N2CC[C@@H](C(=O)N3Cc4nc(C)c(Cl)c(C)c4C3)C2)nc1 [Example 8, (3-chloro-2,4-dimethyl-5,7-dihydropyrrolo[3,4-b]pyridin-6-yl)-[(3R)-1-(5-methylpyrimidin-2-yl)pyrrolidin-3-yl]methanone]	5270	2350
Cc1nc2c(c(C)c1Cl)CN(C(=O)[C@@H]1CCN(c3ccc(C(F)(F)F)nc3)C1)C2 [Example 9, (3-chloro-2,4-dimethyl-5,7-dihydropyrrolo[3,4-b]pyridin-6-yl)-[(3R)-1-[6-(trifluoromethyl)-3-pyridyl]pyrrolidin-3-yl]methanone]	1070	1360
COc1ccc(N2CC[C@@H](C(=O)N3Cc4nc(C)c(Cl)c(C)c4C3)C2)cn1 [Example 10, (3-chloro-2,4-dimethyl-5,7-dihydropyrrolo[3,4-b]pyridin-6-yl)-[(3R)-1-(6-methoxy-3-pyridyl)pyrrolidin-3-yl]methanone]	1010	1030
CNc1ccc(N2CC[C@@H](C(=O)N3Cc4nc(C)c(Cl)c(C)c4C3)C2)cn1 [Example 11, (3-chloro-2,4-dimethyl-5,7-dihydropyrrolo[3,4-b]pyridin-6-yl)-[(3R)-1-[6-(methylamino)-3-pyridyl]pyrrolidin-3-yl]methanone]	446	1360
Cc1ncccc1N1CC[C@@H](C(=O)N2Cc3nc(C)c(Cl)c(C)c3C2)C1 [Example 12, (3-chloro-2,4-dimethyl-5,7-dihydropyrrolo[3,4-b]pyridin-6-yl)-[(3R)-1-(2-methyl-3-pyridyl)pyrrolidin-3-yl]methanone]	1260	1300
Cc1ccncc1N1CC[C@@H](C(=O)N2Cc3nc(C)c(Cl)c(C)c3C2)C1 [Example 13, (3-chloro-2,4-dimethyl-5,7-dihydropyrrolo[3,4-b]pyridin-6-yl)-[(3R)-1-(4-methyl-3-pyridyl)pyrrolidin-3-yl]methanone]	674	528
Cc1nc2c(c(C)c1Cl)CN(C(=O)[C@@H]1CCN(c3cncc(C(F)(F)F)c3)C1)C2 [Example 14, (3-chloro-2,4-dimethyl-5,7-dihydropyrrolo[3,4-b]pyridin-6-yl)-[(3R)-1-[5-(trifluoromethyl)-3-pyridyl]pyrrolidin-3-yl]methanone]	2180	3520
Cc1nc2c(c(C)c1Cl)CN(C(=O)[C@@H]1CCN(c3cncc(C(F)F)c3)C1)C2 [Example 15, (3-chloro-2,4-dimethyl-5,7-dihydropyrrolo[3,4-b]pyridin-6-yl)-[(3R)-1-[5-(difluoromethyl)-3-pyridyl]pyrrolidin-3-yl]methanone]	346	306
Cc1nc2c(c(C)c1Cl)CN(C(=O)[C@@H]1CCN(c3cncc(C4CC4)c3)C1)C2 [Example 16, (3-chloro-2,4-dimethyl-5,7-dihydropyrrolo[3,4-b]pyridin-6-yl)-[(3R)-1-(5-cyclopropyl-3-pyridyl)pyrrolidin-3-yl]methanone]	3640	816
Cc1nc2c(c(C)c1Cl)CN(C(=O)[C@@H]1CCN(c3cncc(OC(F)F)c3)C1)C2 [Example 17, (3-chloro-2,4-dimethyl-5,7-dihydropyrrolo[3,4-b]pyridin-6-yl)-[(3R)-1-[5-(difluoromethoxy)-3-pyridyl]pyrrolidin-3-yl]methanone]	230	240
COc1cncc(N2CC[C@@H](C(=O)N3Cc4nc(C)c(Cl)c(C)c4C3)C2)c1 [Example 18, (3-chloro-2,4-dimethyl-5,7-dihydropyrrolo[3,4-b]pyridin-6-yl)-[(3R)-1-(5-methoxy-3-pyridyl)pyrrolidin-3-yl]methanone]	166	549
Cc1nc2c(c(C)c1Cl)CN(C(=O)[C@@H]1CCN(c3cncc(S(C)(=O)=O)c3)C1)C2 [Example 19, (3-chloro-2,4-dimethyl-5,7-dihydropyrrolo[3,4-b]pyridin-6-yl)-[(3R)-1-(5-methylsulfonyl-3-pyridyl)pyrrolidin-3-yl]methanone]	379	442
Cc1nc2c(c(C)c1Cl)CN(C(=O)[C@@H]1CCN(c3ccnc(C(F)F)c3)C1)C2 [Example 20, (3-chloro-2,4-dimethyl-5,7-dihydropyrrolo[3,4-b]pyridin-6-yl)-[(3R)-1-[2-(difluoromethyl)-4-pyridyl]pyrrolidin-3-yl]methanone]	80	181

— US20220289746A1, “PYRROLIDINE DERIVATIVES” (Hoffmann-La Roche Inc., priority 2019, published 2022)
